Measurements taken from patent US20210292710A1, “METHOD FOR ENHANCING IMMUNE FUNCTION OF IMMUNE CELL AND IMMUNE CELL LINE PRODUCED USING THE SAME” (INDUSTRY-ACADEMIC COOPERATION FOUNDATION, YONSEI UNIVERSITY, priority 2020, published 2021).

Tested on: GLUT1
Assay: GLUT1 expression in T cell based on type of PI3K inhibitor
Excerpt: More specifically, referring to (a) of FIG. 12, the results of GLUT1 expression according to the type of PI3K inhibitor in the helper T cell are shown. In this connection, the PI3K inhibitor may include BKM 120 that may inhibit all subtypes, CAL-101 that may inhibit only p110δ, IPI-145 capable of inhibiting p110γ and P110δ, BYLT719 capable of inhibiting only p110α, and TGX-211 capable of inhibiting only p110β.
Referring to (b) of FIG. 12, the results of GLUT1 expression according to the type of PI3K inhibitor in cytotoxic T cells are shown.

## CC[C@H](Nc1ncnc2[nH]cnc12)c1nc2cccc(F)c2c(=O)n1-c1ccccc1 [CAL-101, idelalisib]
Cytotoxic T cells
  GLUT1 expression level versus BYLT719 and TGX-211 inhibitors: higher GLUT1 expression levels
Helper T cell
  GLUT1 expression level versus BYLT719 and TGX-211 inhibitors: higher GLUT1 expression levels
